Experimental data as given in the NIST ThermoML archive (doi:10.1021/je300632p).

Assay: xn = mol fraction of the nth substance listed
Conditions: 101 kPa, Liquid; for viscosity: Falling or rolling sphere viscometry; for mass density: Vibrating tube method

CCCCO [butan-1-ol] + CCO
Conditions	mass density [kg/m3]	viscosity [mPa·s]
293.15 K, x2 = 0	809.02	3.066
293.15 K, x2 = 0.1	807.8	2.693
293.15 K, x2 = 0.2	806.38	2.494
293.15 K, x2 = 0.3	804.85	2.242
293.15 K, x2 = 0.4	803.63	2.048
293.15 K, x2 = 0.501	801.61	1.897
293.15 K, x2 = 0.602	799.54	1.725
293.15 K, x2 = 0.701	797.38	1.574
293.15 K, x2 = 0.801	795.11	1.445
293.15 K, x2 = 0.9	792.58	1.301
298.15 K, x2 = 0	805.24	2.534
298.15 K, x2 = 0.1	803.98	2.376
298.15 K, x2 = 0.2	802.53	2.214
298.15 K, x2 = 0.3	800.97	1.993
298.15 K, x2 = 0.4	799.71	1.826
298.15 K, x2 = 0.501	797.65	1.705
298.15 K, x2 = 0.602	795.54	1.55
298.15 K, x2 = 0.701	793.33	1.414
298.15 K, x2 = 0.801	790.98	1.302
298.15 K, x2 = 0.9	788.39	1.18
303.15 K, x2 = 0	801.42	2.234
303.15 K, x2 = 0.1	800.13	2.103
303.15 K, x2 = 0.2	798.65	1.967
303.15 K, x2 = 0.3	797.06	1.777
303.15 K, x2 = 0.4	795.75	1.633
303.15 K, x2 = 0.501	793.66	1.533
303.15 K, x2 = 0.602	791.5	1.397
303.15 K, x2 = 0.701	789.23	1.279
303.15 K, x2 = 0.801	786.82	1.184
303.15 K, x2 = 0.9	784.17	1.072
308.15 K, x2 = 0	797.57	1.978
308.15 K, x2 = 0.1	796.25	1.868
308.15 K, x2 = 0.2	794.74	1.754
308.15 K, x2 = 0.3	793.12	1.591
308.15 K, x2 = 0.4	791.76	1.465
308.15 K, x2 = 0.501	789.63	1.381
308.15 K, x2 = 0.602	787.42	1.262
308.15 K, x2 = 0.701	785.1	1.159
308.15 K, x2 = 0.801	782.64	1.076
308.15 K, x2 = 0.9	779.92	0.977
313.15 K, x2 = 0	793.68	1.756
313.15 K, x2 = 0.1	792.33	1.664
313.15 K, x2 = 0.2	790.79	1.569
313.15 K, x2 = 0.3	789.13	1.427
313.15 K, x2 = 0.4	787.74	1.318
313.15 K, x2 = 0.501	785.57	1.246
313.15 K, x2 = 0.602	783.31	1.142
313.15 K, x2 = 0.701	780.94	1.052
313.15 K, x2 = 0.801	778.41	0.98
313.15 K, x2 = 0.9	775.63	0.892
318.15 K, x2 = 0	789.75	1.564
318.15 K, x2 = 0.1	788.37	1.487
318.15 K, x2 = 0.2	786.8	1.407
318.15 K, x2 = 0.3	785.11	1.283
318.15 K, x2 = 0.4	783.67	1.189
318.15 K, x2 = 0.501	781.46	1.127
318.15 K, x2 = 0.602	779.15	1.037
318.15 K, x2 = 0.701	776.73	0.957
318.15 K, x2 = 0.801	774.14	0.895
318.15 K, x2 = 0.9	771.28	0.815
323.15 K, x2 = 0	785.78	1.397
323.15 K, x2 = 0.1	784.36	1.333
323.15 K, x2 = 0.2	782.76	1.265
323.15 K, x2 = 0.3	781.03	1.158
323.15 K, x2 = 0.4	779.54	1.074
323.15 K, x2 = 0.501	777.29	1.024
323.15 K, x2 = 0.602	774.95	0.943
323.15 K, x2 = 0.701	772.47	0.874
323.15 K, x2 = 0.801	769.82	0.817
323.15 K, x2 = 0.9	766.89	0.748
328.15 K, x2 = 0	781.75	1.252
328.15 K, x2 = 0.1	780.31	1.199
328.15 K, x2 = 0.2	778.67	1.141
328.15 K, x2 = 0.3	776.91	1.047
328.15 K, x2 = 0.4	775.38	0.974
328.15 K, x2 = 0.501	773.09	0.93
328.15 K, x2 = 0.602	770.69	0.86
328.15 K, x2 = 0.701	768.15	0.798
328.15 K, x2 = 0.801	765.44	0.749
328.15 K, x2 = 0.9	762.45	0.686
